Results reported in ChEMBL document CHEMBL5325474, “Di-indenopyridines as topoisomerase II-selective anticancer agents: Design, synthesis, and structure-activity relationships” (Bioorg Med Chem, 2023).
Active and inactive are the calls of the source. The rule behind the calls is not given here.

What was measured:
[1] = molecular target: DNA topoisomerase 2-alpha (Homo sapiens) (UniProt P11388); experiment: Inhibition of human DNA topoisomerase 2 alpha at 100 uM using supercoiled pBR322 DNA as substrate incubated for 30 mins by EtBr staining based agarose gel electrophoresis method relative to control
[2] = molecular target: DNA topoisomerase 2-alpha (Homo sapiens) (UniProt P11388); experiment: Inhibition of human DNA topoisomerase 2 alpha at 20 uM using supercoiled pBR322 DNA as substrate incubated for 30 mins by EtBr staining based agarose gel electrophoresis method relative to control
T47D = experiment: Antiproliferative activity against human T47D cells incubated for 72 hrs by microplate reader analysis; type: functional, cell-based
HCT-15 = experiment: Antiproliferative activity against human HCT-15 cells incubated for 72 hrs by microplate reader analysis; type: functional, cell-based; conditions: HCT-15, 72 h
DU-145 = experiment: Antiproliferative activity against human DU-145 cells incubated for 72 hrs by microplate reader analysis; type: functional, cell-based; conditions: DU-145, 72 h
HeLa = experiment: Antiproliferative activity against human HeLa cells incubated for 72 hrs by microplate reader analysis; type: functional, cell-based
[3] = molecular target: T1, DNA topoisomerase 1 (Homo sapiens) (UniProt P11387); experiment: Inhibition of human DNA topoisomerase 1 at 100 uM using supercoiled pBR322 DNA as substrate incubated for 30 mins by EtBr staining based agarose gel electrophoresis method relative to control
T1 sequence (whole entry): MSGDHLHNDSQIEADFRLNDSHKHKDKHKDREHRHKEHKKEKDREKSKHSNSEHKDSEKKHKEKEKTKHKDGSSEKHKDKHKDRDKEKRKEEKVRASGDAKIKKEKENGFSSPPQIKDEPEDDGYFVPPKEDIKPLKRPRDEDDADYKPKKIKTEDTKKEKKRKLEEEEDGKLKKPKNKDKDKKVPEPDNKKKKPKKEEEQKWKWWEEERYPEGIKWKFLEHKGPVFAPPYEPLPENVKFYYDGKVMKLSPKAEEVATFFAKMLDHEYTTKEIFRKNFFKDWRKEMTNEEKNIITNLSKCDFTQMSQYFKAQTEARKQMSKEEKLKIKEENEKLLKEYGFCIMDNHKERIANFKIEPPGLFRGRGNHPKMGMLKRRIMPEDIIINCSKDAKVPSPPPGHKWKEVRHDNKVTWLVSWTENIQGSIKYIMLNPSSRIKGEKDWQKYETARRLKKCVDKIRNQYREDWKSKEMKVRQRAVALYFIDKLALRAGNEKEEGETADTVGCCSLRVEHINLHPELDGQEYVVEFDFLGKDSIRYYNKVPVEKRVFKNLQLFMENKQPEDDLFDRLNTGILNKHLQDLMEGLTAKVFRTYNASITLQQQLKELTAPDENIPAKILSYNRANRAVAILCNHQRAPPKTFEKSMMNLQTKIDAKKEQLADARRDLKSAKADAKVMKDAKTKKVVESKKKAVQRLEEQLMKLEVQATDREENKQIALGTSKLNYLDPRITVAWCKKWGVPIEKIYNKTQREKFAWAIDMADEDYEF

Calf thymus DNA = experiment: Displacement of EtBr from calf thymus DNA assessed as reduction in fluorescence intensity at 5 to 40 uM preincubated with EtBr for 30 mins followed by compound addition and measured after 30 mins by microplate reader analysis; type: nucleic-acid assay; conditions: Bos taurus, dose 5-40 µM
[4] = molecular target: DNA topoisomerase 2-alpha (Homo sapiens) (UniProt P11388); experiment: Catalytic inhibition of human DNA topoisomerase 2 alpha expressed in baculovirus infected insect cells assessed as reduction in linear DNA formation at 200 to 500 uM using supercoiled pBR322 DNA as substrate incubated for 30 mins by agarose gel electrophoresis; conditions: dose 200-500 µM
[5] = molecular target: DNA topoisomerase 2-alpha (Homo sapiens) (UniProt P11388); experiment: Poison activity at topoisomerase 2 alpha in human HCT-15 cells at 20 uM incubated for 24 hrs by alkaline comet assay; type: cell-based

DNA topoisomerase 2-alpha (Homo sapiens), sequence (P11388 whole entry): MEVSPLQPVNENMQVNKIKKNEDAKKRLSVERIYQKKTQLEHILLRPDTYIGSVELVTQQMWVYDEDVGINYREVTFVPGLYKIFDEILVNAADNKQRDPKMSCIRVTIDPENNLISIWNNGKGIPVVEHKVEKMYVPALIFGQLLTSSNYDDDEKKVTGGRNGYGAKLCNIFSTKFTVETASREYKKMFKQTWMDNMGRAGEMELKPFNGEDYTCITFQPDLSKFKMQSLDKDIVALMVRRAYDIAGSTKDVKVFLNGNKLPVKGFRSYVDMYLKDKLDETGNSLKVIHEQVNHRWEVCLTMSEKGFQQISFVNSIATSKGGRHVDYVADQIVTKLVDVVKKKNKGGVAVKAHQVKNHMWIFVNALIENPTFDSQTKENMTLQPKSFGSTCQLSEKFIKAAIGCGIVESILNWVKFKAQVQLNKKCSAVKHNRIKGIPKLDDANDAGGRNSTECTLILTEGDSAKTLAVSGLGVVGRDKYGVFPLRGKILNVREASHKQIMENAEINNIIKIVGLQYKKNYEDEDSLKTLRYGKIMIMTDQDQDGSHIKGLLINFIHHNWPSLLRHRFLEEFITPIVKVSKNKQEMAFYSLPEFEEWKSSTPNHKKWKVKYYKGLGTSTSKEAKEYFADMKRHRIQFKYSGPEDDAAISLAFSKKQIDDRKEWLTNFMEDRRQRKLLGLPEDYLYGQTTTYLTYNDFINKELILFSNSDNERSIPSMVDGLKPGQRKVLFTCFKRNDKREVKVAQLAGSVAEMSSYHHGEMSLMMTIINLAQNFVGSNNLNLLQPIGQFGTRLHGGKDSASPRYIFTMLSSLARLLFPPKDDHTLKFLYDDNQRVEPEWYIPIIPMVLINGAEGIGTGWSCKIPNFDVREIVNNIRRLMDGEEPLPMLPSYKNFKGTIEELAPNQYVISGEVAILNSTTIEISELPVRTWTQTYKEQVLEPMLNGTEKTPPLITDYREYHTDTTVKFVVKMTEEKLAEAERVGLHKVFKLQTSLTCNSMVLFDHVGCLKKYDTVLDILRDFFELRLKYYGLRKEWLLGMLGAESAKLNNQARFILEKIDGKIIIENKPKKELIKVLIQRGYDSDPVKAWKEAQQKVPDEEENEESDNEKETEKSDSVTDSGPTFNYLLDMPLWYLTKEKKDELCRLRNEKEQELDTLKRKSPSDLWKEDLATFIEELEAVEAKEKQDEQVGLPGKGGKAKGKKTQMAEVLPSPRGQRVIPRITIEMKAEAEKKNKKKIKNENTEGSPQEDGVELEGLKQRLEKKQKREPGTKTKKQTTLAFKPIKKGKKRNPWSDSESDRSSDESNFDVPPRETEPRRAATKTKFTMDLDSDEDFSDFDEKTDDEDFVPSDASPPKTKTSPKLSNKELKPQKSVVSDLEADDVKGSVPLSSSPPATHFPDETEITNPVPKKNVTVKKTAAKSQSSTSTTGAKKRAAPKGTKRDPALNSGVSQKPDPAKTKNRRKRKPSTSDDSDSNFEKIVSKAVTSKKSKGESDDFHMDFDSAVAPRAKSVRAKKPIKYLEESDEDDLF

| SMILES | inhibition [1] [%] | inhibition [2] [%] | IC50 (T47D) [µM] | IC50 (HCT-15) [µM] | IC50 (DU-145) [µM] | IC50 (HeLa) [µM] | inhibition [3] [%] | Activity (Calf thymus DNA) | inhibition [4] | Activity [5] |
| --- | --- | --- | --- | --- | --- | --- | --- | --- | --- | --- |
| Oc1ccc(-c2c3c(nc4c2Cc2cccc(O)c2-4)-c2c(O)cccc2C3)cc1 | 43.6 | 31.7 | 4.33 | 0.95 | 0.89 | 2.96 | – | – | – | – |
| Oc1cccc(-c2c3c(nc4c2Cc2cccc(O)c2-4)-c2c(O)cccc2C3)c1 | 26 | – | 6.84 | 0.96 | 2.58 | 0.87 | – | – | – | – |
| CC[C@@]1(O)C(=O)OCc2c1cc1n(c2=O)Cc2cc3ccccc3nc2-1 [CAMPTOTHECIN] | – | – | – | – | 0.61 | – | – | – | – | – |
| COc1cc([C@@H]2c3cc4c(cc3[C@@H](O[C@@H]3O[C@@H]5CO[C@@H](C)O[C@H]5[C@H](O)[C@H]3O)[C@H]3COC(=O)[C@H]23)OCO4)cc(OC)c1O [ETOPOSIDE] | – | – | 0.97 | 1.97 | 9.87 | 3.38 | – | – | – | – |
| Oc1cccc(-c2c3c(nc4c2Cc2ccc(O)cc2-4)-c2cc(O)ccc2C3)c1 | 22.5 | – | > 50 | > 50 | > 50 | > 50 | – | – | – | – |
| c1ccc(-c2c3c(nc4c2Cc2ccccc2-4)-c2ccccc2C3)cc1 | 2.6 | – | > 50 | > 50 | > 50 | > 50 | -0 | – | – | – |
| Oc1ccc2c(c1)Cc1c-2nc2c(c1-c1ccccc1O)Cc1cc(O)ccc1-2 | 93.3 | 7.5 | > 50 | 46.1 | 31.4 | 22.5 | – | – | – | – |
| Oc1ccc2c(c1)Cc1c-2nc2c(c1-c1cccc(F)c1)Cc1cc(O)ccc1-2 | 96.5 | 3.2 | > 50 | > 50 | > 50 | > 50 | -0 | – | – | – |
| Oc1ccc2c(c1)-c1nc3c(c(-c4cccs4)c1C2)Cc1ccc(O)cc1-3 | 59.5 | 4.7 | 0.17 | 0.45 | 0.96 | 0.93 | 0.4 | – | – | – |
| Oc1cccc2c1-c1nc3c(c(-c4ccccc4OC(F)(F)F)c1C2)Cc1cccc(O)c1-3 | 84.8 | 1.6 | 0.05 | 0.93 | 0.87 | 3.23 | -0 | – | – | – |
| Oc1ccc2c(c1)Cc1c-2nc2c(c1-c1cccc(Cl)c1)Cc1cc(O)ccc1-2 | 91.4 | 3.5 | > 50 | > 50 | > 50 | > 50 | -0 | – | – | – |
| Oc1cccc2c1-c1nc3c(c(-c4ccsc4)c1C2)Cc1cccc(O)c1-3 | 13.4 | – | > 50 | > 50 | > 50 | > 50 | -0 | – | – | – |
| Oc1cccc2c1Cc1c-2nc2c(c1-c1ccccc1)Cc1c(O)cccc1-2 | 100 | 1.6 | 1.12 | 1.51 | 3.66 | 0.59 | -0 | – | – | – |
| Oc1ccc(-c2c3c(nc4c2Cc2ccc(O)cc2-4)-c2cc(O)ccc2C3)cc1 | 84.2 | 78 | 5.24 | 27.8 | > 50 | 20.4 | – | – | – | – |
| Oc1cccc(-c2c3c(nc4c2Cc2c(O)cccc2-4)-c2cccc(O)c2C3)c1 | 21.2 | – | > 50 | > 50 | > 50 | > 50 | -0 | – | – | – |
| COc1cc(NS(C)(=O)=O)ccc1Nc1c2ccccc2nc2ccccc12 | – | – | – | – | – | – | – | Active | – | – |
| Oc1ccc2c(c1)-c1nc3c(c(-c4ccccc4O)c1C2)Cc1ccc(O)cc1-3 | 90.3 | 65.9 | 8.86 | 3.86 | 7.86 | 5.39 | – | – | – | – |
| Oc1cccc(-c2c3c(nc4c2Cc2cc(O)ccc2-4)-c2ccc(O)cc2C3)c1 | 56.8 | 40.8 | > 50 | > 50 | > 50 | > 50 | – | – | – | – |
| Oc1cccc2c1Cc1c-2nc2c(c1-c1ccco1)Cc1c(O)cccc1-2 | 100 | 100 | 4.16 | 1.71 | 5.23 | 9.63 | -0 | inactive | Active | inactive |
| Oc1ccccc1-c1c2c(nc3c1Cc1c(O)cccc1-3)-c1cccc(O)c1C2 | 77.1 | 41.8 | 5.3 | 8.69 | > 50 | 2.1 | – | – | – | – |
| Oc1ccccc1-c1c2c(nc3c1Cc1cccc(O)c1-3)-c1c(O)cccc1C2 | -0 | – | 3.82 | 4.84 | 1.81 | 1.56 | – | – | – | – |
| COc1cccc2c1C(=O)c1c(O)c3c(c(O)c1C2=O)C[C@@](O)(C(=O)CO)C[C@@H]3O[C@H]1C[C@H](N)[C@H](O)[C@H](C)O1 [DOXORUBICIN] | – | – | 2.53 | 3.53 | 5.53 | 1.68 | – | – | – | – |
| Oc1ccc(-c2c3c(nc4c2Cc2c(O)cccc2-4)-c2cccc(O)c2C3)cc1 | 13.9 | – | 3.34 | 4.89 | 5.03 | 0.94 | – | – | – | – |
| Oc1ccc(-c2c3c(nc4c2Cc2cc(O)ccc2-4)-c2ccc(O)cc2C3)cc1 | 73.1 | 55.7 | 6.38 | > 50 | > 50 | > 50 | – | – | – | – |
| Oc1ccc(-c2c3c(nc4c2Cc2ccc(C(F)(F)F)cc2-4)-c2cc(C(F)(F)F)ccc2C3)cc1 | 51.4 | 4.5 | > 50 | > 50 | 2.57 | > 50 | 7.1 | – | – | – |
| Oc1ccc2c(c1)-c1nc3c(c(-c4ccc(C(F)(F)F)cc4)c1C2)Cc1ccc(O)cc1-3 | 0.1 | – | 5.8 | 9.06 | 5.84 | 10.5 | -0 | – | – | – |
| Oc1ccc(-c2c3c(nc4c2Cc2c(F)cccc2-4)-c2cccc(F)c2C3)cc1 | 41.5 | 2.5 | > 50 | > 50 | > 50 | > 50 | -0 | – | – | – |
